# Species on record: Rattus norvegicus
# Test: DrugMatrix - Regimen: Daily Repeat
# Type: toxicity, organism-based, Sprague-Dawley
# Design: regimen Daily Repeat, gender Male, age 6-8 weeks
# Conditions: in vivo, po, route oral GAVAGE, vehicle 100 % WATER; for ABSOLUTE BASOPHIL / ABSOLUTE EOSINOPHIL / ABSOLUTE LYMPHOCYTE / ABSOLUTE MONOCYTE / ABSOLUTE SEGMENTED NEUTROPHIL / BASOPHIL / EOSINOPHIL / ERYTHROCYTE COUNT / HEMATOCRIT / HEMOGLOBIN / LEUKOCYTE COUNT / LYMPHOCYTE / MEAN CORPUSCULAR HEMOGLOBIN / MEAN CORPUSCULAR HEMOGLOBIN CONCENTRATION / MEAN CORPUSCULAR VOLUME / MONOCYTE / NEUTROPHIL / NUCLEATED RED BLOOD CELLS / PLATELET COUNT: tissue Blood; for ALANINE AMINOTRANSFERASE / ALBUMIN / ALKALINE PHOSPHATASE / ASPARTATE AMINOTRANSFERASE / BLOOD UREA NITROGEN / CARBON DIOXIDE / CHLORIDE / CHOLESTEROL / CREATINE PHOSPHOKINASE / CREATININE / GLUCOSE / LACTATE DEHYDROGENASE / LIPASE / PHOSPHORUS / POTASSIUM / SODIUM / TOTAL BILIRUBIN / TOTAL PROTEIN / URIC ACID: tissue Plasma
# [1] = 0 mg/kg, 72 h, dose level Control, time 3 day
# [2] = 0 mg/kg, 120 h, dose level Control, time 5 day
# [3] = 50 mg/kg, 72 h, dose level Low, time 3 day
structure (smiles),measurement,setting,value
Cc1ncc([N+](=O)[O-])n1CCO [METRONIDAZOLE],ABSOLUTE BASOPHIL,[1],0 CELLS/uL
same,ABSOLUTE EOSINOPHIL,[1],86.33 CELLS/uL
same,ABSOLUTE LYMPHOCYTE,[1],12090.17 CELLS/uL
same,ABSOLUTE MONOCYTE,[1],166.67 CELLS/uL
same,ABSOLUTE SEGMENTED NEUTROPHIL,[1],1090.17 CELLS/uL
same,BASOPHIL,[1],0%
same,EOSINOPHIL,[1],0.67%
same,ERYTHROCYTE COUNT,[1],5.57 x10E6/uL
same,HEMATOCRIT,[1],35.33%
same,HEMOGLOBIN,[1],13.83 G/DL
same,LEUKOCYTE COUNT,[1],13.43 x10E3/uL
same,LYMPHOCYTE,[1],89.83%
same,MEAN CORPUSCULAR HEMOGLOBIN,[1],24.88 pg
same,MEAN CORPUSCULAR HEMOGLOBIN CONCENTRATION,[1],39.15 G/DL
same,MEAN CORPUSCULAR VOLUME,[1],63.52 fL
same,MONOCYTE,[1],1.17%
same,NEUTROPHIL,[1],8.33%
same,NUCLEATED RED BLOOD CELLS,[1],0 /100WBC
same,PLATELET COUNT,[1],1181.33 x10E3/uL
same,ALANINE AMINOTRANSFERASE,[1],48.33 u/L
same,ALBUMIN,[1],4.1 G/DL
same,ALKALINE PHOSPHATASE,[1],395 u/L
same,ASPARTATE AMINOTRANSFERASE,[1],81.83 u/L
same,BLOOD UREA NITROGEN,[1],15.83 mg/dL
same,CARBON DIOXIDE,[1],24.17 mmol/L
same,CHLORIDE,[1],103.83 MEQ/L
same,CHOLESTEROL,[1],63.67 mg/dL
same,CREATINE PHOSPHOKINASE,[1],372.83 u/L
same,CREATININE,[1],0.18 mg/dL
same,GLUCOSE,[1],173.83 mg/dL
same,LACTATE DEHYDROGENASE,[1],188.33 u/L
same,LIPASE,[1],9.5 u/L
same,PHOSPHORUS,[1],11.95 mg/dL
same,POTASSIUM,[1],5.99 MEQ/L
same,SODIUM,[1],144.43 MEQ/L
same,TOTAL BILIRUBIN,[1],0.15 mg/dL
same,TOTAL PROTEIN,[1],5.95 G/DL
same,URIC ACID,[1],1.82 mg/dL
same,ABSOLUTE BASOPHIL,[2],0 CELLS/uL
same,ABSOLUTE EOSINOPHIL,[2],26.67 CELLS/uL
same,ABSOLUTE LYMPHOCYTE,[2],7583.83 CELLS/uL
same,ABSOLUTE MONOCYTE,[2],131.33 CELLS/uL
same,ABSOLUTE SEGMENTED NEUTROPHIL,[2],674.83 CELLS/uL
same,BASOPHIL,[2],0%
same,EOSINOPHIL,[2],0.33%
same,ERYTHROCYTE COUNT,[2],5.78 x10E6/uL
same,HEMATOCRIT,[2],36.48%
same,HEMOGLOBIN,[2],14.03 G/DL
same,LEUKOCYTE COUNT,[2],8.42 x10E3/uL
same,LYMPHOCYTE,[2],89.83%
same,MEAN CORPUSCULAR HEMOGLOBIN,[2],24.3 pg
same,MEAN CORPUSCULAR HEMOGLOBIN CONCENTRATION,[2],38.52 G/DL
same,MEAN CORPUSCULAR VOLUME,[2],63.15 fL
same,MONOCYTE,[2],1.67%
same,NEUTROPHIL,[2],8.17%
same,NUCLEATED RED BLOOD CELLS,[2],0 /100WBC
same,PLATELET COUNT,[2],1186.67 x10E3/uL
same,ALANINE AMINOTRANSFERASE,[2],50.17 u/L
same,ALBUMIN,[2],4.07 G/DL
same,ALKALINE PHOSPHATASE,[2],367.5 u/L
same,ASPARTATE AMINOTRANSFERASE,[2],81.67 u/L
same,BLOOD UREA NITROGEN,[2],16.17 mg/dL
same,CARBON DIOXIDE,[2],32.33 mmol/L
same,CHLORIDE,[2],101.5 MEQ/L
same,CHOLESTEROL,[2],65.33 mg/dL
same,CREATINE PHOSPHOKINASE,[2],255.33 u/L
same,CREATININE,[2],0.17 mg/dL
same,GLUCOSE,[2],139.33 mg/dL
same,LACTATE DEHYDROGENASE,[2],95 u/L
same,LIPASE,[2],10.5 u/L
same,PHOSPHORUS,[2],10.38 mg/dL
same,POTASSIUM,[2],6.11 MEQ/L
same,SODIUM,[2],145.55 MEQ/L
same,TOTAL BILIRUBIN,[2],0.17 mg/dL
same,TOTAL PROTEIN,[2],5.98 G/DL
same,URIC ACID,[2],0.93 mg/dL
same,ABSOLUTE BASOPHIL,[3],0 CELLS/uL
same,ABSOLUTE EOSINOPHIL,[3],59.33 CELLS/uL
same,ABSOLUTE LYMPHOCYTE,[3],15201.67 CELLS/uL
same,ABSOLUTE MONOCYTE,[3],170 CELLS/uL
same,ABSOLUTE SEGMENTED NEUTROPHIL,[3],1569 CELLS/uL
same,BASOPHIL,[3],0%
same,EOSINOPHIL,[3],0.33%
same,ERYTHROCYTE COUNT,[3],5.47 x10E6/uL
same,HEMATOCRIT,[3],35.2%
same,HEMOGLOBIN,[3],13.83 G/DL
same,LEUKOCYTE COUNT,[3],17 x10E3/uL
same,LYMPHOCYTE,[3],88.67%
same,MEAN CORPUSCULAR HEMOGLOBIN,[3],25.3 pg
same,MEAN CORPUSCULAR HEMOGLOBIN CONCENTRATION,[3],39.3 G/DL
same,MEAN CORPUSCULAR VOLUME,[3],64.4 fL
same,MONOCYTE,[3],1%
same,NEUTROPHIL,[3],10%
same,NUCLEATED RED BLOOD CELLS,[3],0 /100WBC
same,PLATELET COUNT,[3],1236.33 x10E3/uL
same,ALANINE AMINOTRANSFERASE,[3],54.33 u/L
same,ALBUMIN,[3],3.9 G/DL
same,ALKALINE PHOSPHATASE,[3],296.67 u/L
same,ASPARTATE AMINOTRANSFERASE,[3],72 u/L
same,BLOOD UREA NITROGEN,[3],13.67 mg/dL
same,CARBON DIOXIDE,[3],28.33 mmol/L
same,CHLORIDE,[3],100.67 MEQ/L
same,CHOLESTEROL,[3],65 mg/dL
same,CREATINE PHOSPHOKINASE,[3],186.33 u/L
same,CREATININE,[3],0.12 mg/dL
same,GLUCOSE,[3],155.67 mg/dL
same,LACTATE DEHYDROGENASE,[3],82.33 u/L
same,LIPASE,[3],9.33 u/L
same,PHOSPHORUS,[3],12.27 mg/dL
same,POTASSIUM,[3],6.41 MEQ/L
same,SODIUM,[3],142.37 MEQ/L
same,TOTAL BILIRUBIN,[3],0.17 mg/dL
same,TOTAL PROTEIN,[3],5.6 G/DL
same,URIC ACID,[3],1.5 mg/dL

# Source: ChEMBL document CHEMBL3885881, “DrugMatrix”
